assay: Effective concentration for activation of RNase L

Row | SMILES | EC50
1 | Nc1ncnc2c1ncn2C[C@H](OP(=O)(O)OC[C@H]1O[C@@H](n2cnc3c(N)ncnc32)[C@H](OP(=O)(O)OC[C@H]2O[C@@H](n3cnc4c(N)ncnc43)[C@H](O)[C@@H]2O)[C@@H]1O)[C@H](O)CO[PH](=O)O[C@@H]1[C@H](O)[C@@H](COP(=O)(O)O)O[C@H]1n1cnc2c(N)ncnc21 (stereo partly drawn) | 9 nM
2 | Nc1ncnc2c1ncn2C[C@H](OP(=O)(O)OC[C@H]1O[C@@H](n2cnc3c(N)ncnc32)[C@H](O)[C@@H]1O)[C@H](O)COP(=O)(O)O[C@@H]1[C@H](O)[C@@H](CO[PH](=O)O[C@@H]2[C@H](O)[C@@H](COP(=O)(O)O)O[C@H]2n2cnc3c(N)ncnc32)O[C@H]1n1cnc2c(N)ncnc21 (stereo partly drawn) | 1.7 nM
3 | Nc1ncnc2c1ncn2[C@@H]1O[C@H](COP(=O)(O)O[C@@H]2[C@H](O)[C@@H](COP(=O)(O)O[C@@H]3[C@H](O)[C@@H](COP(=O)(O)O[C@@H]4[C@H](O)[C@@H](COP(=O)(O)O)O[C@H]4n4cnc5c(N)ncnc54)O[C@H]3n3cnc4c(N)ncnc43)O[C@H]2n2cnc3c(N)ncnc32)[C@@H](O)[C@H]1O | 1 nM
